From patent US8524911B2, “3-arylamino pyridine derivatives” (Merck Serono SA, priority 2004, dated 2013)
pIC50: −log10 of the molar value.

Assays:
human MEK1 = human MEK1 (Homo sapiens, UniProt Q02750); assay: MEK-1 Enzyme Assay (LANCE-HTRF); format: biochemical; conditions: 100 nM MEK1, 15 μM ATP, 300 nM ERK2, two hours; read-out: MEK inhibition
Protocol: Assay 1: MEK-1 Enzyme Assay (LANCE-HTRF)
The activity of the compounds of the present invitation may be determined by the following procedure; Inhibition of human MEK1 kinase activity was monitored with a homogenous, fluorescence based assay. The assay uses time resolved fluorescence resonance energy transfer to probe for phosphorylation of ERK1 by MEK1. The assay is carried out in low volume 96 well microtiterplates. […] After two hours, 5 nM Europium-anti-PY20 (Perkin Elmer) and 50 nM Anti-GST-Allophycocyanin (CisBio) in buffer containing 50 mM EDTA and 0.05% BSA are added and the reaction incubated for one hour in the dark. Time-resolved fluorescence is measured using a LJL-Analyst (Molecular Devices) with an excitation wavelength of 340 nm and an emission wavelength of 665 nm. The final concentration of DMSO is 2%.

Murine colon C26 cells = assay: Tumor cell proliferation assay (ATP Lite), C26; format: cell-based; conditions: Mus musculus, 96 h, 4 days
Protocol: (§1) Assay 2: Tumor Cell Proliferation Assays (ATP Lite)
(§2) Murine colon C26, human melanoma A375 and MeI5 or human pancreatic MiaPaCa-2 cells were plated in 96 well Corning white plates (1500 cells/well for C26, and 2000 cells/well for A375, and MiaPaCa-2) and cultured overnight at 37° C. in 5% CO2. Inhibitors were serially diluted in 100% DMSO and subsequently added to cells to reach a final concentration of 0.25% DMSO. The cells were incubated for 4 days in the presence of test compounds in cell growth media (DMEM with 10% fetal bovine serum, 2 mM glutamine for C26, and MiaPaCa-2, and RPMI with 10% fetal bovine serum, 2 mM glutamine for A375). Cell proliferation was quantitated using the ATP lite cell proliferation kit (Packard). Columns 4-6 show the concentration of compounds required to induce 50% cell death (IC50 in μM) of […]. With “+” meaning 3 μM<IC50≦10 μM and “++” IC50≦3 μM and “n.d.” means not determined. Few compounds were also tested on human melanoma cell MeI5.

[1] = system: human melanoma A375 cells; assay: Tumor cell proliferation assay (ATP Lite), A375; format: cell-based; conditions: A-375, 96 h, 4 days
Protocol: as §1, §2

[2] = system: human pancreatic MiaPaCa-2 cells; assay: Tumor cell proliferation assay (ATP Lite), MiaPaCa-2; format: cell-based; conditions: MIA PaCa-2, 96 h, 4 days
Protocol: as §1, §2

human MEK1, sequence (Q02750 whole entry): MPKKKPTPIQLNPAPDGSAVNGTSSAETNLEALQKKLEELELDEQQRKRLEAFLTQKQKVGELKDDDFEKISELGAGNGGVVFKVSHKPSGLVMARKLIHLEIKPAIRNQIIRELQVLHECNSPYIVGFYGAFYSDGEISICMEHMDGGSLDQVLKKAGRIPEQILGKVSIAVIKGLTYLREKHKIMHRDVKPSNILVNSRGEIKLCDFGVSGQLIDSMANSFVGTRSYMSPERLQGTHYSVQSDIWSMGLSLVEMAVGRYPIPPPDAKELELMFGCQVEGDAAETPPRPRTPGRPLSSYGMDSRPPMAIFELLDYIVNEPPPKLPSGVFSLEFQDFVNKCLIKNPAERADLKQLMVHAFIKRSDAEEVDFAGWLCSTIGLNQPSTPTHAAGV

| Compound | pIC50 (human MEK1) | IC50 (Murine colon C26 cells) [µM] | IC50 [1] [µM] | IC50 [2] [µM] |
| --- | --- | --- | --- | --- |
| O=C(NC1CCC1)c1ccncc1Nc1ccc(I)cc1F [Example 58, N-cyclobutyl-3-[(2-fluoro-4-iodophenyl)amino]isonicotinamide] | > 6.00 | ≤ 3 | ≤ 3 | ≤ 3 |
| O=C(NOC[C@H](O)CO)c1ccncc1Nc1ccc(I)cc1Cl [Example 8, 3-[(2-chloro-4-iodophenyl)amino]-N-{[(2R)-2,3-dihydroxypropyl]oxy}-isonicotinamide] | > 6.00 | ≤ 3 | ≤ 3 | ≤ 3 |
| O=C(NCCN1CCOCC1)c1ccncc1Nc1ccc(I)cc1F [Example 13, 3-(2-Fluoro-4-iodo-phenylamino)-N-(2-morpholin-4-yl-ethyl)-isonicotinamide] | > 6.00 | ≤ 3 | ≤ 3 | ≤ 3 |
| CC(=O)NCCNC(=O)c1ccncc1Nc1ccc(I)cc1Cl [Example 64, N-(2-Acetylamino-ethyl)-3-(2-chloro-4-iodo-phenylamino)-isonicotinamide] | > 6.00 | 3 to 10 | ≤ 3 | 3 to 10 |
| O=C(NCC1CC1)c1ccncc1Nc1ccc(I)cc1F [Example 53, N-(cyclopropylmethyl)-3-[(2-fluoro-4-iodophenyl)amino]-isonicotinamide] | > 6.00 | ≤ 3 | ≤ 3 | ≤ 3 |
| O=C(NCCCCO)c1ccncc1Nc1ccc(I)cc1F [Example 39, 3-[(2-fluoro-4-iodophenyl)amino]-N-(4-hydroxybutyl)-isonicotinamide] | > 6.00 | ≤ 3 | ≤ 3 | ≤ 3 |
| CCOC(CNC(=O)c1ccncc1Nc1ccc(I)cc1F)OCC [Example 98, N-(2,2-diethoxyethyl)-3-[(2-fluoro-4-iodophenyl)amino]-isonicotinamide] | > 6.00 | 3 to 10 | ≤ 3 | 3 to 10 |
| COCCN(C)C(=O)c1ccncc1Nc1ccc(I)cc1F [Example 24, 3-[(2-fluoro-4-iodophenyl)amino]-N-(2-methoxyethyl)-N-methyl-isonicotinamide] | > 6.00 | ≤ 3 | ≤ 3 | ≤ 3 |
| O=C(NOC[C@H](O)CO)c1ccncc1Nc1ccc(I)cc1 [Example 96, N-{[(2R)-2,3-dihydroxypropyl]oxy}-3-(4-iodophenylamino)-isonicotinamide] | > 6.00 | ≤ 3 | ≤ 3 | ≤ 3 |
| O=C(NCCN1CCCCC1)c1ccncc1Nc1ccc(I)cc1F [Example 33, 3-[(2-fluoro-4-iodophenyl)amino]-N-(2-piperidin-1-ylethyl)-isonicotinamide] | > 6.00 | ≤ 3 | ≤ 3 | ≤ 3 |
| Cc1ccc(CC(=O)NC2CCN(C(=O)c3ccncc3Nc3ccc(I)cc3F)CC2)cc1 [Example 86, N-(1-{3-[(2-fluoro-4-iodophenyl)amino]isonicotinoyl}piperidin-4-yl)-2-(4-methylphenyl)acetamide] | > 6.00 | 3 to 10 | ≤ 3 | 3 to 10 |
| O=C(NCCCCl)c1ccncc1Nc1ccc(I)cc1F [Example 79, N-(3-chloropropyl)-3-[(2-fluoro-4-iodophenyl)-amino]isonicotinamide] | > 6.00 | ≤ 3 | ≤ 3 | ≤ 3 |
| Cc1ccc(CCNC(=O)c2ccncc2Nc2ccc(I)cc2F)cc1 [Example 85, 3-[(2-fluoro-4-iodophenyl)amino]-N-[2-(4-methylphenyl)-ethyl]isonicotinamide] | > 6.00 | 3 to 10 | ≤ 3 | 3 to 10 |
| Cc1ccc(NNC(=O)c2ccncc2Nc2ccc(I)cc2F)cc1 [Example 99, 3-[(2-fluoro-4-iodophenyl)amino]-N′-(4-methylphenyl)isonicotino-hydrazide] | > 6.00 | 3 to 10 | ≤ 3 | 3 to 10 |
| COCCNC(=O)c1ccncc1Nc1ccc(I)cc1F [Example 16, 3-(2-Fluoro-4-iodo-phenylamino)-N-(2-methoxy-ethyl)-isonicotinamide] | > 6.00 | ≤ 3 | ≤ 3 | ≤ 3 |
| O=C(NNc1cc(C(F)(F)F)cc(C(F)(F)F)c1)c1ccncc1Nc1ccc(I)cc1F [Example 101] | > 6.00 | 3 to 10 | ≤ 3 | 3 to 10 |

| Compound | pIC50 (human MEK1) | IC50 (Murine colon C26 cells) [µM] | IC50 [1] [µM] | IC50 [2] [µM] |
| --- | --- | --- | --- | --- |
| C[C@H](O)CNC(=O)c1ccncc1Nc1ccc(I)cc1F [Example 41, 3-[(2-fluoro-4-iodophenyl)amino]-N-[(2S)-2-hydroxypropyl]-isonicotinamide] | > 6.00 | ≤ 3 | ≤ 3 | ≤ 3 |
| NC(=O)c1ccncc1Nc1ccc(I)cc1Cl [Example 11, 3-[(2-chloro-4-iodophenyl)amino]isonicotinamide] | > 6.00 | ≤ 3 | ≤ 3 | ≤ 3 |
| O=C(NNc1nccc(C(F)(F)F)n1)c1ccncc1Nc1ccc(I)cc1F [Example 50, 3-[(2-fluoro-4-iodophenyl)amino]-N′-[4-(trifluoromethyl)pyrimidin-2-yl]isonicotinohydrazide] | > 6.00 | 3 to 10 | ≤ 3 | 3 to 10 |
| CC(C)(C)OC(=O)NC1CCN(C(=O)c2ccncc2Nc2ccc(I)cc2F)CC1 [Example 34, tert-butyl(1-{3-[(2-fluoro-4-iodophenyl)amino]isonicotinoyl}-piperidin-4-yl)carbamate] | > 6.00 | 3 to 10 | ≤ 3 | 3 to 10 |
| NC(=O)c1cc(Br)ncc1Nc1ccc(I)cc1F [Example 68, 2-Bromo-5-(2-fluoro-4-iodo-phenylamino)-isonicotinamide] | > 6.00 | ≤ 3 | ≤ 3 | ≤ 3 |
| O=C(NCCCn1ccnc1)c1ccncc1Nc1ccc(I)cc1F [Example 20, 3-[(2-fluoro-4-iodophenyl)amino]-N-[3-(1H-imidazol-1yl)propyl]-isonicotinamide] | > 6.00 | ≤ 3 | ≤ 3 | ≤ 3 |
| O=C(NNc1ccnc2cc(Cl)ccc12)c1ccncc1Nc1ccc(I)cc1F [Example 56, N′-(7-chloroquinolin-4-yl)-3-[(2-fluoro-4-iodophenyl)amino]-isonicotino-hydrazide] | 5.00 to 6.00 | 3 to 10 | ≤ 3 | 3 to 10 |
| NC(=O)c1ccnc(Cl)c1Nc1ccc(I)cc1F [Example 31, 2-Chloro-3-(2-fluoro-4-iodo-phenylamino)-isonicotinamide] | > 6.00 | ≤ 3 | ≤ 3 | ≤ 3 |
| NC(=O)c1ccncc1Nc1ccc(I)cc1 [Example 67, 3-(4-iodo-phenylamino)-isonicotinamide] | > 6.00 | ≤ 3 | ≤ 3 | ≤ 3 |
| O=C(NCCc1cccc(Cl)c1)c1ccncc1Nc1ccc(I)cc1F [Example 29, N-[2-(3-chlorophenyl)ethyl]-3-[(2-fluoro-4-iodophenyl)-amino]isonicotinamide] | > 6.00 | 3 to 10 | ≤ 3 | 3 to 10 |
| O=C(NC1CC1)c1ccncc1Nc1ccc(I)cc1F [Example 47, N-cyclopropyl-3-[(2-fluoro-4-iodophenyl)amino]isonicotinamide] | > 6.00 | ≤ 3 | ≤ 3 | ≤ 3 |
| O=C(NCCO)c1ccncc1Nc1ccc(I)cc1F [Example 15, 3-(2-Fluoro-4-iodo-phenylamino)-N-(2-hydroxy-ethyl)-isonicotinamide] | > 6.00 | ≤ 3 | ≤ 3 | ≤ 3 |
| O=C(NCC(O)COc1ccccc1)c1ccncc1Nc1ccc(I)cc1F (stereo not shown) [Example 83] | > 6.00 | ≤ 3 | ≤ 3 | ≤ 3 |
| C=CCONC(=O)c1ccncc1Nc1ccc(I)cc1Cl [Example 77, N-allyloxy-3-(2-chloro-4-iodo-phenylamino)-isonicotinamide] | > 6.00 | 3 to 10 | ≤ 3 | 3 to 10 |
| O=C(O)c1ccc(CNC(=O)c2ccncc2Nc2ccc(I)cc2F)cc1 [Example 46, 4-[({3-[(2-fluoro-4-iodophenyl)amino]isonicotinoyl}-amino)methyl]benzoic acid] | > 6.00 | 3 to 10 | ≤ 3 | 3 to 10 |
